From patent US20100093060A1, “GROWTH OF MICROORGANISMS IN CELLULOSIC MEDIA” (priority 2008, published 2010)
Residues, ends and D or L forms follow the SMILES beside them.

Assays:
[1] = Determination of Critical Micelle Concentration (surface tension, Wilhelmy plate); assay type: physicochemical; settings: triple distilled water, pH 10, 25±1° C.
Protocol: Determination of Critical Micelle Concentration. […] Surface tension was measured at 25±1° C. using the Wilhelmy plate technique with a sandblasted platinum plate as the sensor coupled to a Cahn microbalance. The entire assembly was kept in a draft-free plastic cage at a temperature of 25±1° C.

[2] = system: Gram-negative and Gram-positive bacteria; settings: minimal antibacterial effects; typical range; cited from earlier work

Critical Micelle Concentration (CMC) [1]	Structure (SMILES)	minimum inhibitory concentration (MIC) [2]
1.3 mM	CCCCCCCCCCCC(O)CC(=O)N[C@@H](CCC(=O)O)C(=O)O (stereo partly drawn) [FA-Glu, β-hydroxy myristoyl glutamate]	
14.1 mM	CCCCCCCCCCCCCC(=O)N[C@@H](CCC(=O)O)C(=O)O [myristoyl glutamate]	
	CC(C)CCCCCCCCC[C@@H]1CC(=O)N[C@@H](CCC(=O)O)C(=O)N[C@@H](CC(C)C)C(=O)N[C@H](CC(C)C)C(=O)N[C@@H](C(C)C)C(=O)N[C@@H](CC(=O)O)C(=O)N[C@H](CC(C)C)C(=O)N[C@@H](CC(C)C)C(=O)O1 [surfactin] (HELM PEPTIDE1{E.L.[dL].V.D.[dL].L}|CHEM1{[CC(C)CCCCCCCCC[C@H](CC(=O)[*:1])O[*:2]]}$PEPTIDE1,CHEM1,1:R1-1:R1|PEPTIDE1,CHEM1,7:R2-1:R2$$$V2.0)	12 to 50 µg/mL
